The target of series [1] is Endothelial PAS domain-containing protein 1 (Homo sapiens, UniProt Q99814).
Description: Agonist activity at HIF-2alpha in human 786-0 cells assessed as increase in VEGF secretion incubated for 20 hrs by ELISA
The nature of series [2]: MRT (0 to t) in male Sprague-Dawley rat at 5 mg/kg, po measured after 32 hrs by LC-MS/MS analysis. The conditions noted are these: in vivo.
Series [3] is described as follows: in vivo. The note with it: male, Sprague-Dawley, rat, po, 5 mg/kg.
Description: Tmax in male Sprague-Dawley rat at 5 mg/kg, po measured after 32 hrs by LC-MS/MS analysis
The nature of series [4]: in vivo. The conditions noted are these: male, Sprague-Dawley, rat, iv, 0.5 mg/kg.
Description: Tmax in male Sprague-Dawley rat at 0.5 mg/kg, iv measured after 32 hrs by LC-MS/MS analysis
Series [5] can be described thus: in vivo. The note with it: male, Sprague-Dawley, rat, po, 5 mg/kg. This is another data set of the same source.
Description: AUC (0 to t) in male Sprague-Dawley rat at 5 mg/kg, po measured after 32 hrs by LC-MS/MS analysis
Series [6] in a line: in vivo. The conditions noted are these: male, Sprague-Dawley, rat, iv, 0.5 mg/kg. The source holds these as a separate data set.
Description: AUC (0 to t) in male Sprague-Dawley rat at 0.5 mg/kg, iv measured after 32 hrs by LC-MS/MS analysis
Series [7] can be described thus: in vivo. The conditions noted are these: male, Sprague-Dawley, rat, iv, 0.5 mg/kg. The source holds these as a separate data set.
Description: Cmax in male Sprague-Dawley rat at 0.5 mg/kg, iv measured after 32 hrs by LC-MS/MS analysis
Series [8] in a line: in vivo. The conditions noted are these: male, Sprague-Dawley, rat, po, 5 mg/kg. This is another data set of the same source.
Description: Cmax in male Sprague-Dawley rat at 5 mg/kg, po measured after 32 hrs by LC-MS/MS analysis
Series [9] can be described thus: in vivo. The conditions noted are these: male, Sprague-Dawley, rat, po, 5 mg/kg. The source holds these as a separate data set.
Description: Oral bioavailability in male Sprague-Dawley rat at 5 mg/kg measured after 32 hrs by LC-MS/MS analysis
Series [10] can be described thus: Volume of distribution at steady state in male Sprague-Dawley rat at 0.5 mg/kg, iv measured after 32 hrs by LC-MS/MS analysis. The conditions noted are these: in vivo.
A short description of series [11]: Clearance in male Sprague-Dawley rat at 0.5 mg/kg, iv measured after 32 hrs by LC-MS/MS analysis. The note with it: in vivo.
Series [12] in a line: MRT (0 to t) in male Sprague-Dawley rat at 0.5 mg/kg, iv measured after 32 hrs by LC-MS/MS analysis. The note with it: in vivo.
Series [13] is described as follows: Half-life in male Sprague-Dawley rat at 0.5 mg/kg, iv measured after 32 hrs by LC-MS/MS analysis. The conditions noted are these: in vivo.
Series [14] in a line: Clearance in male Sprague-Dawley rat at 5 mg/kg, po measured after 32 hrs by LC-MS/MS analysis. The note with it: in vivo.
Series [15] can be described thus: Half-life in male Sprague-Dawley rat at 5 mg/kg, po measured after 32 hrs by LC-MS/MS analysis. The conditions noted are these: in vivo.

Chain of Endothelial PAS domain-containing protein 1 (Q99814 whole entry, the tested form may be a part): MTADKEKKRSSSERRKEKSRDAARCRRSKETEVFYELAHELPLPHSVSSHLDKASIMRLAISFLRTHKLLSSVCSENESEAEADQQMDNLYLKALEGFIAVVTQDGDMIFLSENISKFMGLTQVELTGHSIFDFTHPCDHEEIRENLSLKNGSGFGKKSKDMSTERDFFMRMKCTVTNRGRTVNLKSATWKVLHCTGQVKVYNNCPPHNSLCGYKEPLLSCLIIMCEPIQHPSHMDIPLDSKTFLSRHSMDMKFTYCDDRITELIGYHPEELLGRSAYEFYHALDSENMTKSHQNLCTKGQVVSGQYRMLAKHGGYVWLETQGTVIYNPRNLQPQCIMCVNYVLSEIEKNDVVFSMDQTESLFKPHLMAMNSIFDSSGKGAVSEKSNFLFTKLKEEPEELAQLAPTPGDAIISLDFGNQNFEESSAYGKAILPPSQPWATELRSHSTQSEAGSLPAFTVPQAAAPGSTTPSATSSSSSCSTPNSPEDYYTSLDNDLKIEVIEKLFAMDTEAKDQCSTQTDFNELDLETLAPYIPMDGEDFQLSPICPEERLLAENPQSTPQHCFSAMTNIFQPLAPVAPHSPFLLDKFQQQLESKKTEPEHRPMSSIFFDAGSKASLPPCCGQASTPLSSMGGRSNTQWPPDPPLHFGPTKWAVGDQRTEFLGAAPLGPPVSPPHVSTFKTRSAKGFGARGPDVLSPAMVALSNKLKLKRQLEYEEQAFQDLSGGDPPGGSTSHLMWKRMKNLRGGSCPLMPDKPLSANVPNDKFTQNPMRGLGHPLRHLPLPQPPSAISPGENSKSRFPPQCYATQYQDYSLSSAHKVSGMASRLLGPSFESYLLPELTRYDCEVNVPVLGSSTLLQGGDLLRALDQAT

The EC50 is the concentration giving half of the maximal effect. High values mean lower potency in that assay, low ones higher potency in that assay. In series [1], `Cc1onc(-c2ccccc2Cl)c1C(=O)N1CCOCC1` registered an EC50 of 9.86 µM.
Compound `Nc1ncc(C(=O)Nc2cccc(C(F)(F)F)c2)c(-c2ccccc2Cl)n1` came in with an EC50 in series [1] of 5.01 µM.
With `Cc1onc(-c2ccccc2F)c1C(=O)Nc1cccc(C(F)(F)F)c1`, a half-maximal response in [1] (EC50) required 10 µM.
`Cc1onc(-c2ccccc2Cl)c1C(=O)Nc1cccc(C#N)c1` registered an EC50 in [1] of 6.21 µM.
The compound `Cc1onc(-c2ccccc2Cl)c1C(=O)Nc1cc(C(F)(F)F)ccn1` gave an EC50 in series [1] of 5.62 µM.
The term MRT last denotes the average time that molecules of a dose stay in the body. Usually Tmax stands for the time at which the peak concentration occurs. The AUC(0-t) is the area under the concentration-time curve up to a stated or last time point. As usually defined, the Cmax is the maximum level reached in the sampled fluid or tissue. For orientation: bioavailability means dose-corrected exposure relative to a reference, in per cent. Low values mean poor availability, high ones good availability. In turn, `Cc1onc(-c2ccccc2OC(F)F)c1C(=O)Nc1cccc(C(F)(F)F)c1` returned an MRT last at 32 h in series [2] of 7.79 h. Moreover, the Tmax at 32 h in series [3] came out at 1.5 h; in series [4] it was 1.8 min. Also, the results for the AUC(0-t) at 32 h in series [5] and in [6] were 194 ng·h/mL and 278 ng·h/mL, respectively. In addition, the Cmax at 32 h in series [7] came out at 285 ng/mL; in [8] it was 35.9 ng/mL. Moreover, the concentration giving a half-maximal response (EC50) in [1] is 2.29 µM. In series [9], this compound returned a bioavailability at 32 h of 7.02%.
The Vd is the apparent volume that relates the amount in the body to the concentration in plasma or blood. The clearance is a measure of how efficiently the substance is removed, as volume per time. Low values mean a low capacity for elimination, high ones a high capacity for elimination. By half-life is commonly meant the time in which the quantity being followed falls by half. High values mean slow decline, low ones rapid decline. What is called CL/F is the apparent clearance, not corrected for the fraction that reaches the circulation. For the compound `O=C(Nc1cccc(C(F)(F)F)c1)c1cn[nH]c1-c1ccccc1Cl`, the MRT last at 32 h amounted to 4.6 h in series [2] and 1.54 h in [12]. The compound also came in with a Vd at 32 h in series [10] of 0.53 L/kg. In series [11], the clearance at 32 h was 5.33 mL/min/kg. The Tmax at 32 h in series [3] was found to be 1.33 h; in series [4], 1.8 min. For the same compound, the half-life at 32 h in [13] is 2.53 h; in series [15], 5.09 h. This compound showed a CL/F at 32 h in series [14] of 8.83 mL/min/kg. In addition, the figures for the AUC(0-t) at 32 h in series [5] and in [6] were 11100 ng·h/mL and 1610 ng·h/mL, respectively. Further, the Cmax at 32 h was determined as 1620 ng/mL in [7] and 1290 ng/mL in series [8]. The midpoint of the response in series [1], the EC50, lay at 1.78 µM. The compound further had a bioavailability at 32 h in series [9] of 68.7%.
